Here are results for 20 compounds from ChEMBL document CHEMBL5149994, “Anticancer potential of indirubins in medicinal chemistry: Biological activity, structural modification, and structure-activity relationship” (Eur J Med Chem, 2021).

≈ marks a conversion by molar mass, not a printed value.

Data set [1] relates to A549. Description: Antiproliferative activity against human A549 cells assessed as cell growth inhibition measured after 24 hrs by MTT assay. In kind it is functional, cell-based. The conditions noted are these: A549, 24 h. On the technique in general: Formazan colour is commonly taken as a measure of viable cells.
Another data set deals with SNU-638. As to the kind of experiment: Antiproliferative activity against human SNU-638 cells assessed as cell growth inhibition measured after 24 hrs by MTT assay. In kind it is functional, cell-based. As to conditions: SNU-638, 24 h.
Another data set has as its system HT-1080. Description: Antiproliferative activity against human HT-1080 cells assessed as cell growth inhibition measured after 24 hrs by MTT assay. As to conditions: HT-1080, 24 h. In kind it is functional, cell-based.
Data set [2] is described as follows: Cytotoxicity against rat RK3E cells harboring RAS assessed as cell growth inhibition measured after 24 hrs by MTT assay. In kind it is toxicity, cell-based.
The nature of data set [3]: Inhibition of GST-tagged recombinant human CDK2/cyclin E expressed in Sf9 cells incubated for 10 mins in presence of [33P]-gamma ATP and ATP by scintillation counter method.
Data set [4] deals with MCF7. Description: Cytotoxicity against human MCF7 cells assessed as cell growth inhibition measured after 4 days by crystal violet staining based assay. In kind it is functional. The conditions noted are these: MCF7, 96 h.
Data set [5] can be described thus: Kinetic solubility of compound in PBS at pH 7.4. It is filed as physicochemical. As to conditions: read-out: Kinetic_solubility.
For a further data set, the target named is CDK2/Cyclin A2 (Homo sapiens, UniProt P24941). As to the kind of experiment: Inhibition of CDK2/cyclin A (unknown origin). It is filed as protein-complex assay.
The test system of data set [6] is HL-60. Description: Cytotoxicity against human HL-60 cells assessed as cell growth inhibition. In kind it is functional, cell-based.
For data set [7], the system named is MCF7. As to the kind of experiment: Cytotoxicity against human MCF7 cells assessed as cell growth inhibition. In kind it is functional, cell-based.
The next data set has as its system SK-MEL19. As to the kind of experiment: Cytotoxicity against human SK-MEL19 cells assessed as cell growth inhibition measured after 24 hrs by WST-1 assay. In kind it is functional, cell-based. As to conditions: SK-MEL19, 24 h.
Data set [8] is described as follows: Cytotoxicity against human SK-MEL-29 cells assessed as cell growth inhibition measured after 24 hrs by WST-1 assay. It is filed as functional, cell-based. As to conditions: SK-MEL-29, 24 h.
For the next data set, the system named is SK-MEL-103. As to the kind of experiment: Cytotoxicity against human SK-MEL-103 cells assessed as cell growth inhibition measured after 24 hrs by WST-1 assay. It is filed as functional, cell-based. As to conditions: SK-MEL-103, 24 h.
The test system of a further data set is NCI-H157. As to the kind of experiment: Cytotoxicity against human NCI-H157 cells assessed as cell growth inhibition at 100 uM by calcein-AM staining based flow cytometry analysis relative to control. It is filed as functional. More on the design: scale not given: the % may be the effect or the level left.
In a further data set the test system is DU-145. Description: Antiproliferative activity against human DU-145 cells assessed as cell growth inhibition by MTT assay. It is filed as functional, cell-based.
In data set [9] the test system is A549. As to the kind of experiment: Antiproliferative activity against human A549 cells assessed as cell growth inhibition measured after 96 hrs by MTT assay. In kind it is functional, cell-based. As to conditions: A549, 96 h.
The next data set concerns CH1. Description: Antiproliferative activity against human CH1 cells assessed as cell growth inhibition measured after 96 hrs by MTT assay. In kind it is functional, cell-based. The conditions noted are these: CH1, 96 h.
The test system of data set [10] is SW480. As to the kind of experiment: Antiproliferative activity against human SW480 cells assessed as cell growth inhibition measured after 96 hrs by MTT assay. It is filed as functional, cell-based. As to conditions: SW480, 96 h.
The test system of data set [11] is SW480. As to the kind of experiment: Antiproliferative activity against human SW480 cells assessed as cell growth inhibition. In kind it is functional, cell-based.
Data set [12] can be described thus: Antiproliferative activity against human Lu1 cells assessed as cell growth inhibition. It is filed as functional, cell-based.
For data set [13], the system named is HepG2. As to the kind of experiment: Antiproliferative activity against human HepG2 cells assessed as cell growth inhibition. It is filed as functional, cell-based.
The subject of data set [14] is HL-60. Description: Antiproliferative activity against human HL-60 cells assessed as cell growth inhibition. It is filed as functional, cell-based.
The subject of data set [15] is HepG2. Description: Antiproliferative activity against human HepG2 cells assessed as cell growth inhibition measured after 72 hrs by MTT assay. The conditions noted are these: HepG2, 72 h. It is filed as functional, cell-based.
A short description of data set [16]: Antiproliferative activity against human Lu1 cells assessed as cell growth inhibition measured after 72 hrs by MTT assay. In kind it is functional, cell-based. As to conditions: Lu1, 72 h.
In data set [17] the test system is SW480. As to the kind of experiment: Antiproliferative activity against human SW480 cells assessed as cell growth inhibition measured after 72 hrs by MTT assay. It is filed as functional, cell-based. As to conditions: SW480, 72 h.
In data set [18] the test system is HL-60. As to the kind of experiment: Antiproliferative activity against human HL-60 cells assessed as cell growth inhibition measured after 72 hrs by MTT assay. It is filed as functional, cell-based. As to conditions: HL-60, 72 h.
Data set [19] concerns MCF7. As to the kind of experiment: Cytotoxicity against human MCF7 cells assessed as cell growth inhibition by MTT assay. In kind it is functional, cell-based.
A further data set concerns LoVo. Description: Cytotoxicity against human LoVo cells assessed as cell growth inhibition by MTT assay. It is filed as functional, cell-based.
The subject of another data set is LNCaP. Description: Cytotoxicity against human LNCaP cells assessed as cell growth inhibition by MTT assay. It is filed as functional, cell-based.
Another data set deals with MV4-11. As to the kind of experiment: Cytotoxicity in human MV4-11 cells assessed as cell growth inhibition incubated for 48 hrs by propidium iodide staining based flow cytometry assay. In kind it is functional. (Flow cytometry measures light scatter and fluorescence of single cells or particles in a stream.)

As a reminder, the IC50 is the point on the concentration scale where inhibition reaches its midpoint. `O=C1Nc2ccc(F)cc2/C1=C1/Nc2ccccc2/C1=N\O`: the 50% inhibitory concentration (IC50) in the data set with A549 [1] is 12.2 µM; with SNU-638 it was 2.1 µM; in the data set on HT-1080, 3.4 µM. Moreover, the IC50 at 24 h in data set [2] amounted to 5.1 µM.
`CN(C)S(=O)(=O)c1ccc2c(c1)/C(=C1/Nc3ccccc3C1=O)C(=O)N2`: the 50% inhibitory concentration (IC50) in data set [3] is 0.04 µM; with MCF7 [4], > 10 µM. Further, the solubility kinetic in data set [5] was < 1 µg/mL.
As for `O=C1Nc2ccccc2/C1=C1/Nc2ncccc2C1=O`, on CDK2/Cyclin A2, the IC50 turned out to be 8.8 µM.
As to `CN(C)CCN1C(=O)/C(=C2\Nc3ccccc3C2=O)c2ccccc21`, the 50% inhibitory concentration (IC50) in the data set with HL-60 [6] came out at 4.45 µM.
`O=C1Nc2ccc([N+](=O)[O-])cc2/C1=C1/Nc2ccccc2/C1=N\O`: the IC50 at 24 h in data set [2] is 1 µM.
On to `C[C@@H]1O[C@H](N2C(=O)/C(=C3\Nc4ccc(Cl)cc4C3=O)c3ccccc32)[C@H](O)[C@H](O)[C@H]1O`, for which the IC50 with MCF7 [7] amounted to 6.96 µM.
Regarding `C[C@@H]1O[C@H](N2C(=O)/C(=C3\Nc4ccccc4C3=O)c3ccccc32)[C@H](O)[C@H](O)[C@H]1O`, the half-inhibitory concentration (IC50) in the data set with MCF7 [7] turned out to be 0.67 µM; with SK-MEL19, 65.4 µM; in data set [8], 86.6 µM; with SK-MEL-103, 383 µM.
As to `CC(C)(C)C(=O)Nc1ccc2c(c1)/C(=C1/Nc3ccccc3/C1=N\O)C(=O)N2`, the IC50 came to 6.4 µM in the data set on A549 [1], 6.5 µM with SNU-638 and 4.2 µM with HT-1080. Further, the half-maximal inhibitory concentration (IC50) at 24 h in data set [2] was found to be 6.4 µM.
In the case of `C[C@@H]1O[C@H](N2C(=O)/C(=C3\[Se]c4ccccc4C3=O)c3ccccc32)[C@H](O)[C@H](O)[C@H]1O`, the Activity in the data set on NCI-H157 is 16.7%.
Regarding `CN1C(=O)/C(=C2\Nc3ccc(Cl)cc3\C2=N/O)c2cccnc21`, the IC50 in the data set with DU-145 was 1.8 µM.
Take `NCCO/N=C1/C(=C2/C(=O)Nc3ccccc32)Nc2ccc(O)cc21`: the half-maximal inhibitory concentration (IC50) in the data set on A549 [9] was 13 µM; in the data set on CH1, 1.3 µM; in the data set on SW480 [10], 2.5 µM.
`Cc1cccc(Nc2nnc(SCC(O)CO/N=C3/C(=C4/C(=O)Nc5ccccc54)Nc4ccccc43)s2)c1C` (stereo not drawn): the half-maximal inhibitory concentration (IC50) in the data set with SW480 [11] was 16 µM; in [12], 19.1 µM; with HepG2 [13] it was 15.3 µM; with HL-60 [14], 12 µM.
`CN(C)CCN(C)S(=O)(=O)c1ccc2c(c1)/C(=C1/Nc3ccccc3/C1=N\O)C(=O)N2`: the concentration for half-maximal inhibition (IC50) was 0.04 µM in [3] and < 0.1 µM with MCF7 [4]. Further, the solubility kinetic in [5] was 18 µg/mL (≈ 40.8 µM).
As to `O=C1/C(=C2/C(=O)N(CC(O)CSc3nnc(Nc4ccccc4)s3)c3ccccc32)Nc2ccccc21` (stereo not drawn), the IC50 with SW480 [11] is 1.65 µM; in data set [12], 2.21 µM; in the data set on HepG2 [13] it was 1.9 µM; in the data set with HL-60 [14], 1.35 µM.
Consider `CCCOc1cccc(/C=C/C(=O)c2ccc(OCCn3cc(CN4C(=O)/C(=C5\Nc6ccccc6\C5=N/O)c5ccccc54)nn3)cc2O)c1`, for which the IC50 amounted to 2.95 µM in the data set with HepG2 [15], 2.5 µM in [16], 2.91 µM with SW480 [17] and 1.29 µM in the data set with HL-60 [18].
In the case of `CN(C)S(=O)(=O)c1ccc2c(c1)/C(=C1/Nc3ccccc3/C1=N\O)C(=O)N2`, the IC50 came out at 0.04 µM in [3] and 0.4 µM in the data set on MCF7 [4]. Moreover, the solubility kinetic in [5] is < 1 µg/mL.
As for `CCCN1C(=O)/C(=C2\Nc3ccccc3\C2=N/O)c2ccccc21`, the IC50 in the data set on MCF7 [19] worked out at 87.6 µM; in the data set with LoVo it was 67.5 µM; in the data set with LNCaP, 77.1 µM.
For orientation: GI50 means the concentration giving 50% growth inhibition. Take `COC(=O)c1ccc2c(c1)/C(=C1/Nc3ccccc3/C1=N\O)C(=O)N2`: the GI50 in the data set with MV4-11 worked out at 0.0541 µM.
For `CN(C)CCN(C)S(=O)(=O)c1ccc2c(c1)/C(=C1/Nc3ccccc3C1=O)C(=O)N2`, the half-maximal inhibitory concentration (IC50) is 0.01 µM in [3] and < 0.1 µM with MCF7 [4]. In [5], the solubility kinetic turned out to be 12 µg/mL (≈ 28.1 µM).
With `O=C1Nc2ccccc2/C1=C1/Nc2ccccc2/C1=N\OCC(O)CSc1nnc(Nc2ccccc2)s1` (stereo not drawn), the half-inhibitory concentration (IC50) in the data set with SW480 [11] was found to be 16.4 µM; in [12], 16.9 µM; in the data set with HepG2 [13], 17.7 µM; with HL-60 [14], 9.52 µM.
